The values below come from patent US10898481B2 (priority 2018, dated 2021).

The target in test [1] is hADORA1/CHO (hA1 expressing) cells (Homo sapiens (Human), UniProt P30542). Description: cell-based. To be noted: FLIPR inhibition, 10 μM adenosine, read-out: cAMP & FLIPR IC50 (nM) hA1.
The target in test [2] is hA2a/CHO (Homo sapiens (Human), UniProt P29274). As to the kind of experiment: cAMP inhibition assay in hA2a/CHO cells, 10 μM adenosine.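 Further: compounds added to cells 30 min ahead of adenosine, then a further 30 min at 37 °C with adenosine before cAMP detection.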 Format: cell-based. To be noted: read-out: cAMP & FLIPR IC50 (nM) hA2a.
Experimental: hA2a/CHO, hA2b/CHO, hA3/CHO and mA2a/CHO (Genscript) were plated at 5×10^3 cells/well into 384-well polystyrene plates at the day of experiment. Compounds were pre-incubated with cells for 30 min at 37° C., 5% CO2. Then 10 μM adenosine was added to the cells and incubated for 30 min at 37° C., 5% CO2. Detection reagent (CISBIO) was added and the plates were incubated for 60 min at room temperature. The signal was captured by Envision.

SMILES strings stand for the structures.

Sequence of hA2a/CHO (P29274 whole entry): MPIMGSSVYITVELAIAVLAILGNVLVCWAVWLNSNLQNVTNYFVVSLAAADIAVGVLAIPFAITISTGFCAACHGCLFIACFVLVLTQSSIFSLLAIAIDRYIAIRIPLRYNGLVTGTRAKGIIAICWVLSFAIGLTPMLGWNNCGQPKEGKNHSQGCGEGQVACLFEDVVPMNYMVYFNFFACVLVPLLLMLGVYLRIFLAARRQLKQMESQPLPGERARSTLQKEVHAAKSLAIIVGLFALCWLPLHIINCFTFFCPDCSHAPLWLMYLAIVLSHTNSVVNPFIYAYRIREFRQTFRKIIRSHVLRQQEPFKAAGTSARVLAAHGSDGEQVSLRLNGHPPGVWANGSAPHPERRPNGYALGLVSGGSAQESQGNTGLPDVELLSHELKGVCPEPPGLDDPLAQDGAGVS
Sequence of hADORA1/CHO (hA1 expressing) cells (P30542 whole entry): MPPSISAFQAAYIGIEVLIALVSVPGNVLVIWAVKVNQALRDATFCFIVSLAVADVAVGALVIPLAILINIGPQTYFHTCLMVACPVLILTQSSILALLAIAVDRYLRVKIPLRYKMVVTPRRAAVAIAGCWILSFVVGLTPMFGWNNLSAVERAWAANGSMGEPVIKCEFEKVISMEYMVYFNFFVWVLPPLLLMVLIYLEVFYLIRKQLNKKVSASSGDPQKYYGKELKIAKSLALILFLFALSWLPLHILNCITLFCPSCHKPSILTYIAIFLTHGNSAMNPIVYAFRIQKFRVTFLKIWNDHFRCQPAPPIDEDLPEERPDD

A word on the IC50: it is the concentration that gives 50% inhibition. As to `Cc1cnc2ccc(-c3nc(C(=O)NCC4CCCN(C)C4=O)c(N)nc3-c3ncco3)cn12` (single isomer, unassigned; isomer 1) [Example 263, 3-amino-N-((1-methyl-2-oxopiperidin-3-yl)methyl)-6-(3-methylimidazo[1,2-a]pyridin-6-yl)-5-(oxazol-2-yl) pyrazine-2-carboxamide (isomer 1)], the IC50 was 103 nM in test [1] and 0.4 nM in test [2].
The corresponding values for `Cc1cnc2ccc(-c3nc(C(=O)N[C@H]4C[C@H](N(C)C)C4)c(N)nc3-c3ncco3)cn12` [Example 271-2, Trans-3-amino-N-(3-(dimethylamino)cyclobutyl)-6-(3-methylimidazo[1,2-a]pyridin-6-yl)-5-(oxazol-2-yl)pyrazine-2-carboxamide] are 865 nM and 23 nM.
The matching figures for `Cc1cnc2ccc(-c3nc(C(=O)NC(C)C4CCCO4)c(N)nc3-c3ncco3)cn12` (single isomer, unassigned; isomer 1) [Example 266, 3-amino-6-(3-methylimidazo[1,2-a]pyridin-6-yl)-5-(oxazol-2-yl)-N-(1-(tetrahydrofuran-2-yl)ethyl)pyrazine-2-carboxamide (isomer 1)]: greater than 10000 nM and 7.6 nM.
The matching figures for `Cc1cnc2ccc(-c3nc(C(=O)NCc4cccc(N5C[C@H]6CC[C@@H](C5)N6C)n4)c(N)nc3-c3ncco3)cn12` [Example 173, 3-amino-N-((6-((1R,5S)-8-methyl-3,8-diazabicyclo[3.2.1]octan-3-yl)pyridin-2-yl)methyl)-6-(3-methylimidazo[1,2-a]pyridin-6-yl)-5-(oxazol-2-yl)pyrazine-2-carboxamide]: 6500 nM and 5.1 nM.
On to `Cc1cnc2ccc(-c3nc(C(=O)NCC4CCN(C)C4=O)c(N)nc3-c3ccc(F)cc3)cn12` (single isomer, unassigned; isomer 2) [Example 256, 3-amino-5-(4-fluorophenyl)-N-((1-methyl-2-oxopyrrolidin-3-yl)methyl)-6-(3-methylimidazo[1,2-a]pyridin-6-yl) pyrazine-2-carboxamide (isomer 2)], for which the figures for the half-inhibitory concentration (IC50) in test [1] and in test [2] were 34 nM and 1.8 nM, respectively.
The corresponding values for `Cc1cnc2ccc(-c3nc(C(=O)NC[C@H]4CC(C)(C)CN4C)c(N)nc3-c3ncco3)cn12` (single isomer, unassigned; isomer 2) [Example 230, 3-amino-6-(3-methylimidazo[1,2-a]pyridin-6-yl)-5-(oxazol-2-yl)-N-((1,4,4-trimethylpyrrolidin-2-yl)methyl) pyrazine-2-carboxamide (isomer 2)] are 6000 nM and 15 nM.
The matching figures for `Cc1cnc2ccc(-c3nc(C(=O)NCCn4ccccc4=O)c(N)nc3-c3ncco3)cn12` [Example 237, 3-amino-6-(3-methylimidazo[1,2-a]pyridin-6-yl)-5-(oxazol-2-yl)-N-(2-(2-oxopyridin-1(2H)-yl)ethyl)pyrazine-2-carboxamide]: 71 nM and 5.1 nM.
The matching figures for `Cc1cnc2ccc(-c3nc(C(=O)NCc4cccc(N5CCC(N(C)C)C5)n4)c(N)nc3-c3ncco3)cn12` (single isomer, unassigned) [Cmpd. 232, 3-amino-N-((6-(3-(dimethylamino)pyrrolidin-1-yl)pyridin-2-yl)methyl)-6-(3-methylimidazo[1,2-a]pyridin-6-yl)-5-(oxazol-2-yl)pyrazine-2-carboxamide]: 1500 nM and 0.5 nM.
In the case of `Cc1cnc2ccc(-c3nc(C(=O)N[C@H]4CCOC4)c(N)nc3-c3ncco3)cn12` [Example 277, (S)-3-amino-6-(3-methylimidazo[1,2-a]pyridin-6-yl)-5-(oxazol-2-yl)-N-(tetrahydrofuran-3-yl)pyrazine-2-carboxamide], the 50% inhibitory concentration (IC50) in test [1] amounted to 6560 nM; in test [2], 12 nM.
